In ChEMBL document CHEMBL1136603, “Synthesis and biological evaluation of novel indoloazepine derivatives as non-peptide vasopressin V2 receptor antagonists” (Bioorg Med Chem Lett, 2003):

Legend:
[1] = target: T1, Vasopressin V2 receptor (Homo sapiens, UniProt P30518); experiment: Displacement of [3H]AVP from human V2 receptors expressed in HEK293 cells; type: cell-based
[2] = target: T1, Vasopressin V2 receptor; experiment: Inhibitory activity of the human V2 receptor was assessed by the accumulation of cAMP in transfected HEK293 cells.; type: functional, cell-based
[3] = target: T1, Vasopressin V2 receptor; experiment: Compound was assessed for their ability to displace [3H]AVP from human V2 receptors transfected into HEK293 cells at 0.1 uM concentration; type: cell-based
[4] = target: Vasopressin V1a receptor (Homo sapiens, UniProt P37288); experiment: Binding affinity towards VIa receptor
Vasopressin V1a receptor, sequence (P37288 whole entry): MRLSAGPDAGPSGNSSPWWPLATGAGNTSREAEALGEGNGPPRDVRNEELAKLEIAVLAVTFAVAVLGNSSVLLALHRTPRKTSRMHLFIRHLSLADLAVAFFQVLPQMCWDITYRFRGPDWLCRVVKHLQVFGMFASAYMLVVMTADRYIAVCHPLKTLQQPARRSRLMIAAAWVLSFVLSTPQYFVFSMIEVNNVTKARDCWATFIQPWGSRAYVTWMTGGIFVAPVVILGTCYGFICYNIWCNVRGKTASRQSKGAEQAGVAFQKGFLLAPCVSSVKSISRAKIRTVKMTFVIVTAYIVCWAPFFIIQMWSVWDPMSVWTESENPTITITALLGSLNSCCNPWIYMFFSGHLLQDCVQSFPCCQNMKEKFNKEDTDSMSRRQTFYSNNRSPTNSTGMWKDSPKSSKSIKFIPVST

[5] = target: Vasopressin V2 receptor (Rattus norvegicus, UniProt Q00788); experiment: Binding affinity towards V2 receptor
Vasopressin V2 receptor (Rattus norvegicus, UniProt Q00788), sequence (Q00788 whole entry): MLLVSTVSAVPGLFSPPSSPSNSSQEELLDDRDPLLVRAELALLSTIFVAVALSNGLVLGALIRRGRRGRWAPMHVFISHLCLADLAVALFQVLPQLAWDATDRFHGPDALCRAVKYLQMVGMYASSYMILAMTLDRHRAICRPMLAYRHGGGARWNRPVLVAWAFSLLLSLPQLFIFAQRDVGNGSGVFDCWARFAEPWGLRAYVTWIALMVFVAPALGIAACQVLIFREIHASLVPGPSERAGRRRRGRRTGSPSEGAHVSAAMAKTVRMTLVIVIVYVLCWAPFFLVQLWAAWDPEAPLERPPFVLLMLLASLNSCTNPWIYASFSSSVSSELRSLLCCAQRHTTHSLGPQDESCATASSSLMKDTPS

T1 sequence (P30518 whole entry): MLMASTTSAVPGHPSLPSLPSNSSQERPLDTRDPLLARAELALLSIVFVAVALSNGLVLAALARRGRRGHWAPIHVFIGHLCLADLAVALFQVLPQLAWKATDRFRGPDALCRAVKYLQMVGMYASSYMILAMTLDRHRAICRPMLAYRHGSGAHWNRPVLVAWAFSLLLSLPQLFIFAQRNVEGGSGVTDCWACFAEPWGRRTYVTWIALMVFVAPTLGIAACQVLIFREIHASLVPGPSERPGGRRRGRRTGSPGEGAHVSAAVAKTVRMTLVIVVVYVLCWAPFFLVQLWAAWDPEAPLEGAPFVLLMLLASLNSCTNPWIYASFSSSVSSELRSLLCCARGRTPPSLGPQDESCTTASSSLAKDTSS

| IC50 [1] [µM] | Compound | further results |
| --- | --- | --- |
| 0.008 | O=C(Nc1ccc(C(=O)N2CCCC3C(=O)Nc4cccc2c43)cc1)c1ccccc1-c1ccccc1 (configuration not stated) | – |
| 0.05 | O=C(Nc1ccc(C(=O)N2CCCc3c[nH]c4cccc2c34)c(Cl)c1)c1ccccc1-c1ccccc1 | IC50 [2]: 0.33 µM |
| – | Cc1ccc(-c2ccccc2C(=O)Nc2ccc(C(=O)N3CCCc4cn(Cc5ccccc5)c5cccc3c45)cc2)cc1 | inhibition [3]: < 30% |
| 0.012 | O=C(Nc1ccc(C(=O)N2CCCc3c(S(=O)(=O)O)[nH]c4cccc2c34)cc1Cl)c1ccccc1-c1ccccc1 | – |
| – | Cc1ccc(F)cc1C(=O)Nc1ccc(C(=O)N2Cc3cccn3Cc3ccccc32)c(Cl)c1 [LIXIVAPTAN] | IC50 [2]: 0.091 µM |
| – | Cc1ccccc1C(=O)Nc1ccc(C(=O)N2CCCc3c[nH]c4cccc2c34)cc1 | inhibition [3]: < 30% |
| 0.55 | CCOC(=O)Cn1cc2c3c(cccc31)N(C(=O)c1ccc(NC(=O)c3ccccc3-c3ccc(C)cc3)cc1)CCC2 | – |
| 0.19 | Cc1ccc(F)cc1C(=O)Nc1ccc(C(=O)N2CCCc3c[nH]c4cccc2c34)cc1 | – |
| 0.015 | O=C(Nc1ccc(C(=O)N2CCCc3c[nH]c4cccc2c34)cc1Cl)c1ccccc1-c1ccccc1 | – |
| 0.18 | Cc1c(F)cccc1C(=O)Nc1ccc(C(=O)N2CCCc3c[nH]c4cccc2c34)cc1 | – |
| – | CCCn1cc2c3c(cccc31)N(C(=O)c1ccc(NC(=O)c3ccccc3-c3ccc(C)cc3)cc1)CCC2 | inhibition [3]: < 30% |
| 0.17 | CC(=O)n1cc2c3c(cccc31)N(C(=O)c1ccc(NC(=O)c3ccccc3-c3ccc(C)cc3)cc1)CCC2 | – |

| Compound | IC50 [1] [µM] | further results |
| --- | --- | --- |
| Cc1ccc(-c2ccccc2C(=O)Nc2ccc(C(=O)N3CCCc4c[nH]c5cccc3c45)cc2)cc1 | 0.011 | IC50 [2]: 0.07 µM |
| Cc1ccc(-c2ccccc2C(=O)Nc2ccc(C(=O)N3CCCc4cn(C)c5cccc3c45)cc2)cc1 | 0.21 | – |
| O=C(Nc1ccc(C(=O)N2CCCc3c(Cl)[nH]c4cccc2c34)cc1)c1ccccc1-c1ccccc1 | 0.044 | – |
| O=C(Nc1ccc(C(=O)N2CCCc3c[nH]c4cccc2c34)cc1)c1ccccc1-c1ccccc1 | 0.02 | IC50 [2]: 0.07 µM; IC50 [4]: 3.1 µM; IC50 [5]: 0.001 µM |
| O=C(Nc1ccc(C(=O)N2CCCc3c(S(=O)(=O)O)[nH]c4cccc2c34)cc1)c1ccccc1-c1ccccc1 | 0.013 | – |
